# Data published in paper PMC7143549, “Anticancer Activities of Meroterpenoids Isolated from the Brown Alga Cystoseira usneoides against the Human Colon Cancer Cells HT-29” (Foods, 2020).
# How the values were obtained:
# [1] = system: HT-29 human colon carcinoma cells; test: Sulforhodamine B (SRB) cell viability assay, HT-29; assay type: cell-based; conditions: for IC50: Homo sapiens, HT-29, 72 h; for IC50 / IC50 HT-29: colon cancer cells, 72 h of treatment, SRB, mean ± SE of three experiments; for Selectivity Index (SI): IC50 for normal cells CCD 841 CoN / IC50 for cancer cells HT-29
# Description: Cell viability was quantified using the Sulforhodamine B assay described by Skehan et al.. Cells were plated with a density of 5 × 10^3 (HT-29) and 1 × 10^4 (CCD 841 CoN) cells/well and allowed to attach at 37 °C in an atmosphere with 5% CO2. After 24 h, the AMTs dissolved in DMSO were added to the cells (final concentrations of 10, 20, 30, and 50 µg/mL and less than 0.05% of DMSO) and the plates were incubated for 72 h. Then, the cells were fixed by adding 50 μL of TCA (50%) to each well and the plates were maintained for 1 h at 4 °C. The plates were washed five times with deionized water, air-dried, and stained for 30 min at room temperature with 100 μL of 0.4% (w/v) SRB prepared in 1% (v/v) acetic acid. The plates were rinsed quickly five times with 1% acetic acid to remove unbound dye, followed by air-drying. The bound dye was solubilized in 2 mM Tris base (100 μL/well) for 5 min. Optical densities were read on a microplate reader (Spectrophotometer LabsystemsMultiskan EX, λ 492 nm). Three independent assays were conducted, each one in duplicate. A standard curve was constructed for each experiment and used for converting the measured optical density values into numbers of viable cells/well. The inhibition rate was used to evaluate the cell viability and its algorithm was the following formula: ((ODcontrol − ODtreatment)/ODcontrol) × 100; OD, optical density. The OD492 for control cells was taken as 100% viability. The half maximal inhibitory concentration (IC50) was calculated. The selectivity index (SI) of each compound was calculated as IC50 of the compound against the CCD 841 CoN normal cell line/IC50 of the same compound against the HT-29 cancer cell line.
# HT-29 colon cancer cells = test: Cell cycle analysis by flow cytometry (PI); assay type: cell-based, human; conditions: 24 h; 30 μg/mL of 1, 2, 5, 6, 7, 8 and 90 μg/mL of 3 and 4 (Figure 4B)
# Description: HT-29 cells (1 × 10^6 cells/well) were seeded in six-well plates and incubated for 24 h, followed by treatment with AMTs dissolved in DMSO (final concentrations of 10, 20, and 30 µg/mL for compounds 1, 2, 5, 6, 7, and 8, and 30, 60, and 90 µg/mL for compounds 3 and 4, and always below 0.05% DMSO) and 24 h of additional incubation. Colchicine (final concentration of 0.2 μg/mL) was used as positive control. The cells were then washed, harvested with trypsin, and centrifuged at 1500 rpm (5 min, 25 °C). The resulting pellet was fixed with ice-cold 70% ethanol (1 mL/10^6 cells) and the samples were stored at −4°C overnight. After fixation, the cells were washed with PBS, stained with PBS containing 5 mg/mL of RNase A, and incubated for 48 h at 4 °C. Subsequently, 50 μL of 0.1 mg/mL of IP was added and incubated for 1 h at 4 °C. The relative DNA content per cell was analyzed using a Cytomics FC500 flow cytometer (Beckman Coulter, Indianapolis, IN, USA). The data acquisition was performed with the DML program and the analysis of the acquired data with the CXP Software (Beckman Coulter, Indianapolis, IN, USA).
# p-ERK1/2 in HT-29 cells = test: Western blot of phosphorylated ERK1/2; assay type: cell-based, human; conditions: 24 h; 10 and 20 μg/mL
# Description: (§1) Cells were cultured to 80% confluence at 37 °C. After 24 h of treatment with the compounds (10 and 20 µg/mL for compounds 1, 2, 5, 6, 7, and 8, and 30 and 60 µg/mL for compounds 3 and 4), HT-29 cells were rinsed twice with ice-cold PBS, and then lysed immediately in lysis buffer (250 mM NaCl, 50 mM Tris (pH 7.5), 0.5 mM EDTA, 5 mM EGTA, 8 mM MgCl2, 1 mM PMSF, 0.01 mg/mL pepstatin A, 0.01 mg/mL leupeptin, 0.01 mg/mL aprotinin, 1% Triton X-100). After centrifugation at 12,000 g for 3 min at 4°C to separate the cellular debris, the supernatant was collected and stored at −80°C until use. The protein concentrations were determined using Bio-Rad Protein Assay (BioRad, Richmond, CA, USA), according to the manufacturer’s instructions.
# (§2) Equal protein content (50 μg) samples of cell lysates were separated on 10% SDS–polyacrylamide gel and transferred to polyvinylidene difluoride membranes (Hybond-P, Amershan Biosciences, Little Chalfont, UK). The membranes were blocked with 5% (w/v) non-fat dry milk in Tris-buffered saline containing 0.1% Tween-20 buffer (pH 7.4) (TBST) for 1 h at room temperature and incubated with agitation with specific antibodies: anti-pERK1/2 (Cell Signaling; 1:1000), anti-pJNK (Cell Signaling; 1:1000), anti-pAKT (Cell Signaling; 1:1000), anti-β-actin (Sigma-Aldrich; 1:500). Membranes were incubated overnight at 4°C with gentle shaking. The secondary antibody was a peroxidase-conjugated goat anti-mouse or -rabbit antibody (1:10,000; DakoCytomation, Carpinteria, CA, USA). After washing the membrane three times in TBST buffer (10 min), the signals were detected using an enhanced chemiluminescence light-detecting kit (Super-Signal West Pico Chemiluminescent Substrate, Pierce, IL, USA), according to the manufacturer’s instructions and exposed to an X-ray film (GE Healthcare Ltd., Amersham, UK). The protein band densities were analyzed and quantified with a Scientific Imaging Systems (Biophotonics ImageJ Analysis Software, National Institute of Mental Health, Bethesda, MD, USA). β-actin was used to confirm the equal loading and transfer of proteins.
# HT-29 cells = test: Wound migration assay; assay type: cell-based, human; conditions: 24 h, wound-healing; for inhibition at 10 µg/mL: Homo sapiens, HT-29, read-out: inhibition of cell migration
# Description: For cell migration assay, HT-29 cells were seeded in six-well culture plates and allowed to grow to 80%–90% confluence for the experiment. After aspirating the medium, similar sized wounds were performed in the monolayer cells using a sterile micropipette tip. Wounded monolayer cells were washed three times with PBS to remove cell debris and then replaced with complete McCoy’s medium. HT-29 cells were treated with the AMTs (10 µg/mL for compounds 1, 2, 5, 6, 7, and 8, and 30 µg/mL for compounds 3 and 4) and incubated for 24h. For the image analysis of the effect of each treatment on cell migration, the wounded area was photographed immediately after scratching and after 24 h. The level of cell migration was determined using NIH Image software (Image J 1.44g, Wayne Rasband, USA) and then expressed as a percentage of wound closure area using the equation: Migration rate (%) = [(wound area at 0 h − wound area at 24 h)/wound area at 0 h] × 100%.
# p-AKT in HT-29 cells = test: Western blot of phosphorylated AKT; assay type: cell-based, human; conditions: 24 h; 10 and 20 μg/mL for 1, 2, 5, 6, 7, 8; 30 and 60 μg/mL for 3 and 4
# Description: as §1, §2
# p-JNK in HT-29 cells = test: Western blot of phosphorylated JNK; assay type: cell-based, human; conditions: 24 h; 10 and 20 μg/mL for 1, 2, 5, 6, 7, 8; 30 and 60 μg/mL for 3 and 4
# Description: as §1, §2
IC50 [1] [µg/mL],IC50 HT-29 [1] [µg/mL],Structure (SMILES),Selectivity Index (SI) [1],"accumulation of cells at the G2/M phase (cell cycle arrest, words) (HT-29 colon cancer cells)",p-ERK1/2 level vs control (p-ERK1/2 in HT-29 cells),inhibition at 10 µg/mL (HT-29 cells; 10 μg/mL) [%],expression of p-AKT protein vs control (p-AKT in HT-29 cells),inhibition of cell migration (HT-29 cells; 10 μg/mL),phospho-JNK level vs control (p-JNK in HT-29 cells),"inhibition of cell migration (HT-29 cells; 30 μg/mL (methods, Figure 5B))"
8.81 ± 1.55,,"COc1c(C)cc(O)cc1C/C=C(\C)CC(=O)/C=C(/C)CCCC(C)(O)C(=O)/C=C/C(C)(C)O (centres unmarked) [Compound 1, usneoidone Z]",5.26,significant cell cycle arrest in the G2/M,significantly reduced,28.4,significantly downregulated,,,
9.14 ± 0.23,,"COc1c(C)cc(O)cc1C/C=C(\C)CC(=O)/C=C(\C)CCCC(C)(O)C(=O)/C=C/C(C)(C)O (centres unmarked) [Compound 2, 11-hydroxy-1′-O-methylamentadione]",2.34,significant,significantly reduced,,significantly downregulated,no significant effects,decreased phosphorylation,
36.9,34.34 ± 1.81,"COc1c(C)cc(O)cc1C/C=C(\C)CC(=O)/C=C(\C)CCCC(C)=O [Compound 3, cystomexicone B]",>1.45,significant,,,significantly downregulated,,decreased phosphorylation,no significant effects
14 ± 1.33,,"COc1c(C)cc(O)cc1/C=C/C(C)(O)CC(=O)/C=C(/C)CCCC(C)C(=O)/C=C/C(C)(C)O (centres unmarked) [Compound 7, cystodione A]",>3.57,significant,significantly reduced,30.7,significantly downregulated,,decreased phosphorylation,
9.14,9.08 ± 1.04,"COc1c(C)cc(O)cc1/C=C/C(C)(O)CC(=O)/C=C(\C)CCCC(C)C(=O)/C=C/C(C)(C)O (centres unmarked) [Compound 8, cystodione B]",3.51,not significant,significantly reduced,59.1,significantly downregulated,,decreased phosphorylation,
